Results: patent US6696475B2, “Substituted phenyl derivatives, their preparation and use” (NeuroSearch A/S, priority 1997, dated 2004)
Values belong to the compound of their own block, whether it stands above or below them.

What was measured:
[1] = molecular target: erythrocyte chloride channels; assay: Cl- conductance (GCl) from conductive netfluxes of Cl- and membrane potentials in suspensions of normal erythrocytes; format: cell-based, Human; conditions: suspension of normal erythrocytes; for Kd: read-out: KD-value for block of GCl
From the text: (§1) The compounds of the present invention are potent blockers of chloride channels in normal as well as sickle cell erythrocytes.
(§2) All dose-response experiments were therefore performed by concomitant measurements of conductive neffluxes of Cl^− (JCl) and membrane potentials (Vm) in suspensions of erythrocytes (Bennekou, P. and Christophersen, P. (1986), Flux ratio of Valinomycin—Mediated K^+ Fluxes across the Human Red Cell Membrane in the presence of the Protronophore CCCP. J. Membrane Biol. 93, 221-227. ). The membrane Cl^− conductances (GCl) were calculated by the following equation (Hodgkin, A. L. and Huxley, A. F. (1952) The components of membrane conductance in the giant axon of Loligo. J. Physiol. Lond. 116, 449-472): [formula]
(§3) where F is the Faraday constant, ECl is the Nernst potential for the Cl-ion.

[2] = test system: rats; conditions: rat, in vivo
Procedure: (§4) 3-Trifluoromethylphenyl-2-carboxyphenyl urea is non-toxic to mice and rats at concentrations up to 250 mg/kg i.p. and i.v.

[3] = test system: mice; conditions: mouse, in vivo
Procedure: as §4

[4] = test system: erythrocytes; assay: Valinomycin induced cell volume loss, relative volume of packed cells; format: cell-based; conditions: valinomycin for 5 min; volume loss 26% without compound
Procedure: Inducing a massive water and salt loss (KCl) by addition the K^+-ionophore valinomycin to the suspension for 5 min reduced the cell volume by 26%.

[5] = test system: erythrocyte chloride channels (homozygoteous sickle cell erythrocytes); assay: Cl- conductance (GCl) in sickle cell erythrocytes; format: cell-based, Human; conditions: oxygenated as well as deoxygenated homozygoteous sickle cell erythrocytes
From the text: as §1, §2, §3

[6] = test system: Normal erythrocytes; assay: K+-flux from normal erythrocytes, extracellular K+-concentration vs time; format: cell-based; conditions: 10 μM
From the text: (§5) Deoxygenation induced permeability increases of sickle cells were estimated by measuring the extracellular K^+-concentration vs time. […] The K^+ flux from oxygenated sickle erythrocytes was 2-3 times higher than from normal erythrocytes and these fluxes was accelerated 4-8 times upon deoxygenation.

[7] = test system: sickle erythrocytes; assay: Deoxygenation induced permeability increase of sickle cells, extracellular K+-concentration vs time; format: cell-based; conditions: 10 μM
From the text: as §5

[8] = test system: bone resorbtion; conditions: in vitro; cited from earlier work
[9] = test system: bone degration; conditions: growing yound rats; cited from earlier work
[10] = test system: proton pump; conditions: cited from earlier work

- Kd [1]: 1900 nM
SMILES: O=C(Nc1cccc(C(F)(F)F)c1)Nc1ccc(Br)cc1-c1nnn[nH]1 [3-Trifluoromethylphenyl-4-bromo-2-(5-tetrazolyl)phenyl Urea]

SMILES: O=C(Nc1cccc(C(F)(F)F)c1)Nc1ccccc1C(=O)O [N-3-Trifluoromethylphenyl-N′-2-carboxyphenyl Urea]
- non-toxic dose [2]: up to 250 mg/kg
- non-toxic dose [3]: up to 250 mg/kg
- cell volume loss in presence of compound [4]: 7%
- block of GCl compared with normal erythrocytes [5]: equipotently blocked
- effect on K+-fluxes of normal erythrocytes [6]: insensitive
- basal K+-flux from sickle erythrocytes [7]: normalised
- deoxygenation induced K+ flux component ([7]; deoxygenated sickle erythrocytes): nearly abolished
- block of GCl [1]: more than 95%
- Kd [1]: 1300 nM

- melting point: 258 to 260 °C
- Kd [1]: 300 nM
SMILES: CN(C)S(=O)(=O)c1ccc(-c2ccc(NC(=O)Nc3cccc(C(F)(F)F)c3)c(-c3nnn[nH]3)c2)cc1 [N-(3-Trifluoromethylphenyl)-N′-(4′-(N,N-dimethylsulfamoyl)-2-(1-H-tetrazol-5-yl)-4-biphenyl) urea]

SMILES: CC(=O)Nc1nnc(S(N)(=O)=O)s1 [acetacolamide]
- effect on bone resorbtion, pit formation [8]: effective

SMILES: CO/C1=C\C(C)=C\[C@@H](C)[C@@H](O)[C@@H](C)C/C(C)=C/C=C/[C@H](OC)[C@@H]([C@@H](C)[C@@H](O)[C@H](C)[C@@]2(O)C[C@@H](O)[C@H](C)[C@@H](C(C)C)O2)OC1=O [bafilomycin A1]
- effect on bone resorbtion, pit formation [8]: completely eliminates
- effect on bone degration [9]: depresses
- block of the proton pump [10]: extremely potent, reversible inhibitor

SMILES: COc1ccc2[nH]c([S+]([O-])Cc3ncc(C)c(OC)c3C)nc2c1 (centres unmarked) [omeprazol]
- block of the proton pump [10]: ineffective
